In this experiment the target is bovine cardiac myofibrils (full-length cardiac myosin ATPase in the native sarcomere) (Bos taurus (Bovine), UniProt Q9BE39). Briefly: Skinned bovine cardiac myofibril ATPase assay (PK/LDH-coupled). It is filed as biochemical. The settings on record: Ca2+ activating to 75% of maximal rate; for CDMF75 IC15: concentration giving 15% inhibition; for IC50: read-out: CDMF75 IC50. The essentials:
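Inhibition of steady-state ATPase read at 340 nm through a PK/LDH-coupled NADH system (0.5 mM NADH, 1.5 mM PEP). Detergent-skinned bovine cardiac myofibrils, 1 mg/mL, were tested at pH 6.8 in PIPES/MgCl2 with 50 μM ATP and calcium adjusted to give pCa50 or pCa75 activation.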

Experimental findings from patent publication US12065436B2, “Cardiac sarcomere inhibitors” (Cytokinetics, Inc., priority 2018, dated 2024) are described below.

Sequence of bovine cardiac myofibrils (full-length cardiac myosin ATPase in the native sarcomere) (Q9BE39 whole entry): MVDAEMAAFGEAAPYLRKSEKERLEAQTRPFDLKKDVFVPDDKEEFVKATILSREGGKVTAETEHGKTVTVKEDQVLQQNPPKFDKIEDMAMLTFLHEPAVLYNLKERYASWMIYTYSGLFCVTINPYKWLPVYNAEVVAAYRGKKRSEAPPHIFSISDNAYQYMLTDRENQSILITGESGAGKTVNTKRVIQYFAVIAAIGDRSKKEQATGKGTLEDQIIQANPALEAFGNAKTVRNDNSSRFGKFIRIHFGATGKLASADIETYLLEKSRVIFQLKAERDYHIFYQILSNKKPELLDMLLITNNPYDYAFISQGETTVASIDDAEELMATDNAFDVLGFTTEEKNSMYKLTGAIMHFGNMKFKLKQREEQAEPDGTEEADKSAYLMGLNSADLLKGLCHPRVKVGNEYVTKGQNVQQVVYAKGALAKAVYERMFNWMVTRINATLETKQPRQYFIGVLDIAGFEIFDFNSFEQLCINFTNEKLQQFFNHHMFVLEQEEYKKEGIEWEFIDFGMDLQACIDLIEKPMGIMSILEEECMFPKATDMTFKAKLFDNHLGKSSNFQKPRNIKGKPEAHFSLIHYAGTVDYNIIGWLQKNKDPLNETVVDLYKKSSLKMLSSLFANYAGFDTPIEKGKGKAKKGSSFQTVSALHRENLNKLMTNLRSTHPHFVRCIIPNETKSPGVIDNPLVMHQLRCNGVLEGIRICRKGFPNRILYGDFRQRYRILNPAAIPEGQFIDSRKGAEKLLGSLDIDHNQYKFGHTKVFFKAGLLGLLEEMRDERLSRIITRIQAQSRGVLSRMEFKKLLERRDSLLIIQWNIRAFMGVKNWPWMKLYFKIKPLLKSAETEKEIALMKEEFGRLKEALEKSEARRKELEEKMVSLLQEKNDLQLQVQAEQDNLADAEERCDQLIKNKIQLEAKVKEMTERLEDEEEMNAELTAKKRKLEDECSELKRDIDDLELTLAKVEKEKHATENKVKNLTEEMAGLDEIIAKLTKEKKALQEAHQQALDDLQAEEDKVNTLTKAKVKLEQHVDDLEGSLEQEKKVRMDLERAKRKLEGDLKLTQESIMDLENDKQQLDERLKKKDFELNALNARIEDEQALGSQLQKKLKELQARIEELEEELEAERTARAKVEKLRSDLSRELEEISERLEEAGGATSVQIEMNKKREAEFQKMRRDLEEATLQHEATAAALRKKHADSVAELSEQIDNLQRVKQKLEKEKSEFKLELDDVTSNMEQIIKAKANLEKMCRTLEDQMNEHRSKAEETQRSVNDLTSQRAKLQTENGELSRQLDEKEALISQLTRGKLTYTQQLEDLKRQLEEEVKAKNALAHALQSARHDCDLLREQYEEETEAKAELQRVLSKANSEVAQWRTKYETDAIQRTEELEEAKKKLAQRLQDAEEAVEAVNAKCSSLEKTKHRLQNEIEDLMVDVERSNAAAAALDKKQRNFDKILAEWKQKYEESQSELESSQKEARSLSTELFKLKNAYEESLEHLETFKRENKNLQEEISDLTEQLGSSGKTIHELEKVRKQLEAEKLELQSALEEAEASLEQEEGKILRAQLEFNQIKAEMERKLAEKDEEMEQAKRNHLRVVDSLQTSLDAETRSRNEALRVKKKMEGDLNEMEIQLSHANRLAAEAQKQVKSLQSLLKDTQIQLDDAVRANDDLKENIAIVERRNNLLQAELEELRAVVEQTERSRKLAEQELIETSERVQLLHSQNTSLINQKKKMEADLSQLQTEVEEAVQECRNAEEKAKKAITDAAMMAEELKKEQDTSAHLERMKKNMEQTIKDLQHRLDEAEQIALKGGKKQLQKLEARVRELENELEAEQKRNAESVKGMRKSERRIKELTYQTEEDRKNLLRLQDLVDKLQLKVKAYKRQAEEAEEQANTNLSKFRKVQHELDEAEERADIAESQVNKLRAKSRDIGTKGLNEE
Sequence of bovine cardiac myofibrils (full-length cardiac myosin ATPase in the native sarcomere) (P85100 whole entry partner): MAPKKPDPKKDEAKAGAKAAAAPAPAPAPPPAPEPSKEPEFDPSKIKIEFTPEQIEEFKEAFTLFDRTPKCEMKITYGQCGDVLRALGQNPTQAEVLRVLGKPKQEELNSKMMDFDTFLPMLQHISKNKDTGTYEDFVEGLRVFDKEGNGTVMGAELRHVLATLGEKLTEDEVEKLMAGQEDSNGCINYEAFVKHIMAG
Sequence of bovine cardiac myofibrils (full-length cardiac myosin ATPase in the native sarcomere) (Q3SZE5 whole entry partner): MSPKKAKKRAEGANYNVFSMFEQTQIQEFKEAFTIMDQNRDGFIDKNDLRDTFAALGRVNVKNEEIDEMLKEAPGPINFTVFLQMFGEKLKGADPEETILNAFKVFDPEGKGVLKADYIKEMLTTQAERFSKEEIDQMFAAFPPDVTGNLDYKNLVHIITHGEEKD

Consider `CCc1noc(-c2ccc3c(c2)CC[C@H]3NC(=O)c2nnn(C)n2)n1` [Compound 256, (R)-N-(5-(3-ethyl-1,2,4-oxadiazol-5-yl)-2,3-dihydro-1H-inden-1-yl)-2-methyl-2H-tetrazole-5-carboxamide], for which the “CDMF75 IC15” value is 500 nM and the IC50 worked out at 1700 nM.

Turning to `Cc1nc(-c2ccc3c(c2)CC[C@H]3NC(=O)c2oc(C)nc2C)no1` [Compound 112, (R)-2,4-dimethyl-N-(5-(5-methyl-1,2,4-oxadiazol-3-yl)-2,3-dihydro-1H-inden-1-yl)oxazole-5-carboxamide], the “CDMF75 IC15” value was 1500 nM and the IC50 stood at 5200 nM.

Regarding `Cc1ncoc1C(=O)N[C@@H]1CCc2cc(-c3noc(C(C)C)n3)ccc21` [Compound 393, (R)-N-(5-(5-isopropyl-1,2,4-oxadiazol-3-yl)-2,3-dihydro-1H-inden-1-yl)-4-methyloxazole-5-carboxamide], the “CDMF75 IC15” value was determined as 400 nM and the half-maximal inhibitory concentration (IC50) amounted to 1200 nM.

Regarding `O=C1CC[C@@H](C(=O)N[C@@H]2CCc3cc(-c4noc(C5CC5)n4)ccc32)N1` [Compound 338, (S)-N-((R)-5-(5-cyclopropyl-1,2,4-oxadiazol-3-yl)-2,3-dihydro-1H-inden-1-yl)-5-oxopyrrolidine-2-carboxamide], the “CDMF75 IC15” value came to 39200 nM and the IC50 is more than 39200 nM.

As for `CC(=O)OCCc1nc(-c2ccc3c(c2)CC[C@H]3NC(=O)c2cnn(C)c2)no1` [Compound 548, 2-(3-{(1R)-1-[(1-methylpyrazol-4-yl)carbonylamino]indan-5-yl}-1,2,4-oxadiazol-5-yl)ethyl acetate], the “CDMF75 IC15” value was 11800 nM and the IC50 is 39200 nM.

For `CNC(=O)N[C@@H]1CCc2cc(-c3noc(C(F)F)n3)ccc21` [Compound 295, (R)-1-(5-(5-(difluoromethyl)-1,2,4-oxadiazol-3-yl)-2,3-dihydro-1H-inden-1-yl)-3-methylurea], the “CDMF75 IC15” value was found to be 4900 nM and the IC50 is more than 39200 nM.

As for `Cc1n[nH]cc1C(=O)N[C@@H]1CCc2cc(-c3noc(C4CCC4)n3)ccc21` [Compound 399, (R)-N-(5-(5-cyclobutyl-1,2,4-oxadiazol-3-yl)-2,3-dihydro-1H-inden-1-yl)-3-methyl-1H-pyrazole-4-carboxamide], the “CDMF75 IC15” value was 300 nM and the IC50 was found to be 1000 nM.

As for `Cc1nc(-c2ccc3c(c2)CCC3NC(=O)Nc2ncccn2)no1` (stereo not shown) [Compound 110, 1-(5-(5-methyl-1,2,4-oxadiazol-3-yl)-2,3-dihydro-1H-inden-1-yl)-3-(pyrimidin-2-yl)urea], the “CDMF75 IC15” value was found to be 39200 nM and the IC50 is more than 39200 nM.

Regarding `Cc1nc(C(=O)NC2CCc3cc(-c4noc(C)n4)ccc32)no1` (stereo not shown) [Compound 87, 5-methyl-N-(5-(5-methyl-1,2,4-oxadiazol-3-yl)-2,3-dihydro-1H-inden-1-yl)-1,2,4-oxadiazole-3-carboxamide], the “CDMF75 IC15” value is 3700 nM and the IC50 was found to be 15700 nM.

On to `Cc1ncoc1C(=O)N[C@@H]1CCc2cc(-c3noc(C(F)F)n3)ccc21` [Compound 448, (R)-N-(5-(5-(difluoromethyl)-1,2,4-oxadiazol-3-yl)-2,3-dihydro-1H-inden-1-yl)-4-methyloxazole-5-carboxamide], for which the “CDMF75 IC15” value came to 300 nM and the IC50 turned out to be 900 nM.

In the case of `CC(CO)c1nc(-c2ccc3c(c2)CC[C@H]3NC(=O)c2nnn(C)n2)no1` (stereo partly drawn) [Compound 518, N-((1R)-5-(5-(1-hydroxypropan-2-yl)-1,2,4-oxadiazol-3-yl)-2,3-dihydro-1H-inden-1-yl)-2-methyl-2H-tetrazole-5-carboxamide], the “CDMF75 IC15” value came out at 27800 nM and the IC50 turned out to be 39200 nM.

Consider `COCc1nc(-c2ccc3c(c2)CC[C@H]3NC(=O)c2ccnn2C)no1` [Compound 175, (R)-N-(5-(5-(methoxymethyl)-1,2,4-oxadiazol-3-yl)-2,3-dihydro-1H-inden-1-yl)-1-methyl-1H-pyrazole-5-carboxamide], for which the “CDMF75 IC15” value worked out at 400 nM and the IC50 came out at 1400 nM.

As to `CCc1nc(-c2ccc3c(c2)CC[C@H]3NC(=O)c2cc(CO)ccn2)no1` [Compound 652, (R)-N-(5-(5-ethyl-1,2,4-oxadiazol-3-yl)-2,3-dihydro-1H-inden-1-yl)-4-(hydroxymethyl)picolinamide], the “CDMF75 IC15” value was found to be 500 nM and the IC50 was found to be 1500 nM.

On to `CCc1nc(-c2ccc3c(c2)CC[C@H]3NC(=O)c2cnco2)no1` [Compound 583, (R)-N-(5-(5-ethyl-1,2,4-oxadiazol-3-yl)-2,3-dihydro-1H-inden-1-yl)oxazole-5-carboxamide], for which the “CDMF75 IC15” value is 400 nM and the IC50 was determined as 1300 nM.

As for `O=C(NC1CCc2cc(-c3noc(C(F)F)n3)ccc21)c1cnn2c1CCC2` (stereo not shown) [Compound 36, N-(5-(5-(difluoromethyl)-1,2,4-oxadiazol-3-yl)-2,3-dihydro-1H-inden-1-yl)-5,6-dihydro-4H-pyrrolo[1,2-b]pyrazole-3-carboxamide], the “CDMF75 IC15” value was 900 nM and the IC50 was determined as 4700 nM.

As for `Cc1nc(-c2ccc3c(c2)CC[C@H]3NC(=O)OC2CCC2)no1` [Compound 319, cyclobutyl (R)-(5-(5-methyl-1,2,4-oxadiazol-3-yl)-2,3-dihydro-1H-inden-1-yl)carbamate], the “CDMF75 IC15” value is 1300 nM and the IC50 stood at 5300 nM.

For `Cc1nc(-c2ccc3c(c2)OC[C@H]3NC(=O)c2cc(CO)ccn2)no1` [Compound 718, (S)-4-(hydroxymethyl)-N-(6-(5-methyl-1,2,4-oxadiazol-3-yl)-2,3-dihydrobenzofuran-3-yl)picolinamide], the “CDMF75 IC15” value worked out at 1100 nM and the IC50 came to 5200 nM.

`Cc1ccc(-c2ccc3c(c2)CC[C@H]3NC(=O)c2ccnn2C)cc1` [Compound 374, (R)-1-methyl-N-(5-(p-tolyl)-2,3-dihydro-1H-inden-1-yl)-1H-pyrazole-5-carboxamide]: the “CDMF75 IC15” value is 1700 nM and the IC50 turned out to be 6400 nM.

As for `O=C(N[C@@H]1CCc2cc(-c3noc(C(F)F)n3)ccc21)c1ccnc(C(F)F)c1` [Compound 685, (R)-2-(difluoromethyl)-N-(5-(5-(difluoromethyl)-1,2,4-oxadiazol-3-yl)-2,3-dihydro-1H-inden-1-yl)isonicotinamide], the “CDMF75 IC15” value amounted to 700 nM and the IC50 was 2600 nM.

`CCc1nc(-c2ccc3c(c2)CC[C@H]3NC(=O)c2ccnn2C)no1` [Compound 240, (R)-N-(5-(5-ethyl-1,2,4-oxadiazol-3-yl)-2,3-dihydro-1H-inden-1-yl)-1-methyl-1H-pyrazole-5-carboxamide]: the “CDMF75 IC15” value was 300 nM and the IC50 came to 800 nM.

Turning to `Cc1noc(-c2ccc3c(c2)CC[C@H]3NC(=O)c2cnc(C)n2C)n1` [Compound 702, (R)-1,2-dimethyl-N-(5-(3-methyl-1,2,4-oxadiazol-5-yl)-2,3-dihydro-1H-inden-1-yl)-1H-imidazole-5-carboxamide], the “CDMF75 IC15” value turned out to be 2600 nM and the IC50 came to 11700 nM.

Consider `CCc1nc(-c2cc(Cl)c3c(c2)CC[C@H]3NC(=O)c2cnn(C)c2)no1` [Compound 588, (R)-N-(7-chloro-5-(5-ethyl-1,2,4-oxadiazol-3-yl)-2,3-dihydro-1H-inden-1-yl)-1-methyl-1H-pyrazole-4-carboxamide], for which the “CDMF75 IC15” value stood at 1200 nM and the IC50 was determined as 4300 nM.

On to `CCc1nc(-c2ccc3c(c2)CC[C@H]3NC(=O)c2ncncc2C)no1` [Compound 643, (R)-N-(5-(5-ethyl-1,2,4-oxadiazol-3-yl)-2,3-dihydro-1H-inden-1-yl)-5-methylpyrimidine-4-carboxamide], for which the “CDMF75 IC15” value turned out to be 600 nM and the IC50 turned out to be 2100 nM.

With `O=C(N[C@@H]1CCc2cc(-c3noc(C4CC4)n3)ccc21)OC1CCCC1` [Compound 328, cyclopentyl (R)-(5-(5-cyclopropyl-1,2,4-oxadiazol-3-yl)-2,3-dihydro-1H-inden-1-yl)carbamate], the “CDMF75 IC15” value worked out at 1200 nM and the IC50 was more than 39200 nM.

As for `COCc1nc(-c2ccc3c(c2)CC[C@H]3NC(=O)c2nnc(C)o2)no1` [Compound 698, (R)-N-(5-(5-(methoxymethyl)-1,2,4-oxadiazol-3-yl)-2,3-dihydro-1H-inden-1-yl)-5-methyl-1,3,4-oxadiazole-2-carboxamide], the “CDMF75 IC15” value amounted to 900 nM and the IC50 was 3500 nM.

Consider `O=C(N[C@@H]1CCc2cc(-c3noc(C4CC4)n3)ccc21)c1cnn(CCO)c1` [Compound 521, (R)-N-(5-(5-cyclopropyl-1,2,4-oxadiazol-3-yl)-2,3-dihydro-1H-inden-1-yl)-1-(2-hydroxyethyl)-1H-pyrazole-4-carboxamide], for which the “CDMF75 IC15” value was 1200 nM and the IC50 came to 5000 nM.

With `Cc1ncc(C(=O)NC2CCc3cc(-c4noc(C(F)F)n4)ccc32)s1` (stereo not shown) [Compound 10, N-(5-(5-(difluoromethyl)-1,2,4-oxadiazol-3-yl)-2,3-dihydro-1H-inden-1-yl)-2-methylthiazole-5-carboxamide], the “CDMF75 IC15” value worked out at 1000 nM and the IC50 turned out to be 3400 nM.

Consider `O=C(NC1CCc2cc(-c3noc(C(F)F)n3)ccc21)C(F)F` (stereo not shown) [Compound 1, N-(5-(5-(difluoromethyl)-1,2,4-oxadiazol-3-yl)-2,3-dihydro-1H-inden-1-yl)-2,2-difluoroacetamide], for which the “CDMF75 IC15” value came out at 4500 nM and the IC50 is 21700 nM.

With `CCOC(=O)C(C)c1nc(-c2ccc3c(c2)CC[C@H]3NC(=O)c2ccnn2C)no1` (stereo partly drawn) [Compound 492, ethyl 2-(3-((R)-1-(1-methyl-1H-pyrazole-5-carboxamido)-2,3-dihydro-1H-inden-5-yl)-1,2,4-oxadiazol-5-yl)propanoate], the “CDMF75 IC15” value came to 1100 nM and the IC50 is 4000 nM.
